Results taken from ChEMBL document CHEMBL1909046, “DrugMatrix in vitro pharmacology data”.

Columns and labels:
[1] = biological target: Cytochrome P450 2C19 (Homo sapiens, UniProt P33261); details: bti-tn-5b1-4; further: in other assays of this panel Not Active means under 50% inhibition at 10 µM
[2] = biological target: Beta-2 adrenergic receptor (Homo sapiens, UniProt P07550); test: DRUGMATRIX: Adrenergic beta2 radioligand binding (ligand: [3H] CGP-12177); assay type: cell membranes, CHO, Membrane; details: cho; Not Active = under 50% inhibition at 10 µM
Sequence of Beta-2 adrenergic receptor (P07550 whole entry): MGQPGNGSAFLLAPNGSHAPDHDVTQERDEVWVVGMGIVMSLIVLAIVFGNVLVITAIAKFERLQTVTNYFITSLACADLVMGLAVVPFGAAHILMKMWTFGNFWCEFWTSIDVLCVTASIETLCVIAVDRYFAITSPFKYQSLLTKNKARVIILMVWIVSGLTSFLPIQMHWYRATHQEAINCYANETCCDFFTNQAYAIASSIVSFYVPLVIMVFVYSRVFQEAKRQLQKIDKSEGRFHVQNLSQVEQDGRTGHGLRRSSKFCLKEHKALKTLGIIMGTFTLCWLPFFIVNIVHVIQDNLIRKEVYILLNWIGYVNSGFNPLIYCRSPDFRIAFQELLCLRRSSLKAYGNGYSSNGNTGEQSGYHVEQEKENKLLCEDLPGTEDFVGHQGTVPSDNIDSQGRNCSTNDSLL

[3] = DRUGMATRIX: Sigma2 radioligand binding (ligand: [3H] Ifenprodil); assay type: cell membranes, Rattus norvegicus, Wistar, Brain, Membrane; details: Not Active = under 50% inhibition at 10 µM
[4] = biological target: Delta-type opioid receptor (Homo sapiens, UniProt P41143); assay type: cell membranes, HEK293, Membrane; details: hek293; further: in other assays of this panel Not Active means under 50% inhibition at 10 µM
Sequence of Delta-type opioid receptor (P41143 whole entry): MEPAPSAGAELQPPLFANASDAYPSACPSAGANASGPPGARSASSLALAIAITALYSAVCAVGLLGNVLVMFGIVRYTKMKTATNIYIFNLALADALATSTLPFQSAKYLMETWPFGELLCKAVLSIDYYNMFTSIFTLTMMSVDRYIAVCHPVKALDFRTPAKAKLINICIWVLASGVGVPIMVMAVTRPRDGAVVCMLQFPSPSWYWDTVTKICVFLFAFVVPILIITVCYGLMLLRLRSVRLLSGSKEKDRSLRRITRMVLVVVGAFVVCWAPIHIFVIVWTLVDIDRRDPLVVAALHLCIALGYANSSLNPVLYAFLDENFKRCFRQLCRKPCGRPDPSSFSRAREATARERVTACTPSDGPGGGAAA

[5] = biological target: T1, Nitric oxide synthase, inducible (Mus musculus, UniProt P29477); design: species or system Escherichia coli;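 further: inhibition of iNOS enzyme activity measured with L-arginine as substrate; in other assays of this panel Not Active means under 50% inhibition at 10 µM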
T1 sequence (P29477 whole entry): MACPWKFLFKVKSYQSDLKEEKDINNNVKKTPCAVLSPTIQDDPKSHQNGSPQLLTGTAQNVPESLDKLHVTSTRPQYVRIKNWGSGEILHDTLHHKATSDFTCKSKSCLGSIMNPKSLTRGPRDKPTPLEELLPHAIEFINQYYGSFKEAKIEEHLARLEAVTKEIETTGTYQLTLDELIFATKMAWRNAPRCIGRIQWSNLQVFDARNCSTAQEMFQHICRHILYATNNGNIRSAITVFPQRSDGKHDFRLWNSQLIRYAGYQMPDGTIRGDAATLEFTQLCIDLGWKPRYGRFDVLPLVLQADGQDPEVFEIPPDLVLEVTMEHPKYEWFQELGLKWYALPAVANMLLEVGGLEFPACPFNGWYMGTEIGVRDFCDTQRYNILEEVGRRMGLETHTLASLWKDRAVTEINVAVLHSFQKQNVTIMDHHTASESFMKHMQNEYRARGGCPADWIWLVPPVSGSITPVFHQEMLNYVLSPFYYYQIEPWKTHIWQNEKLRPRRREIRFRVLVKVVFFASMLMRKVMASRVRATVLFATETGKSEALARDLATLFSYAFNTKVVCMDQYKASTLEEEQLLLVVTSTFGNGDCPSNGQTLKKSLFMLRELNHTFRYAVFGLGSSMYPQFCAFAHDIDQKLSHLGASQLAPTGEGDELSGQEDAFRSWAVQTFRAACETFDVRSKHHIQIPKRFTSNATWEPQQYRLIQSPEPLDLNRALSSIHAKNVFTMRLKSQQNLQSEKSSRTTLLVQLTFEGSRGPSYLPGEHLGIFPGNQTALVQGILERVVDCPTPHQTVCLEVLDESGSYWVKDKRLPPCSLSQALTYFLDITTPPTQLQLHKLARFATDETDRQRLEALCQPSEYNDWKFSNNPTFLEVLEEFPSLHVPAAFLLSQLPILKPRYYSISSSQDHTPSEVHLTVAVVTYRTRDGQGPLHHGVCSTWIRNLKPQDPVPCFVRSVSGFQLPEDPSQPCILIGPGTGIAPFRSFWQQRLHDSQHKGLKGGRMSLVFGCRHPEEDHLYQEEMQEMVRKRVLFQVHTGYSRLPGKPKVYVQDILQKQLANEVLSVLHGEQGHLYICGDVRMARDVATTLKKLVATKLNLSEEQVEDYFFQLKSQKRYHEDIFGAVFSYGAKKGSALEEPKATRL

[6] = biological target: T2, Interstitial collagenase (Homo sapiens, UniProt P03956); test: biochemical; assay type: tissue-based, Rheumatoid synovial fibroblasts;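 further: MMP-1 enzyme inhibition assay using a peptide substrate; in other assays of this panel Not Active means under 50% inhibition at 10 µM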
T2 sequence (P03956 whole entry): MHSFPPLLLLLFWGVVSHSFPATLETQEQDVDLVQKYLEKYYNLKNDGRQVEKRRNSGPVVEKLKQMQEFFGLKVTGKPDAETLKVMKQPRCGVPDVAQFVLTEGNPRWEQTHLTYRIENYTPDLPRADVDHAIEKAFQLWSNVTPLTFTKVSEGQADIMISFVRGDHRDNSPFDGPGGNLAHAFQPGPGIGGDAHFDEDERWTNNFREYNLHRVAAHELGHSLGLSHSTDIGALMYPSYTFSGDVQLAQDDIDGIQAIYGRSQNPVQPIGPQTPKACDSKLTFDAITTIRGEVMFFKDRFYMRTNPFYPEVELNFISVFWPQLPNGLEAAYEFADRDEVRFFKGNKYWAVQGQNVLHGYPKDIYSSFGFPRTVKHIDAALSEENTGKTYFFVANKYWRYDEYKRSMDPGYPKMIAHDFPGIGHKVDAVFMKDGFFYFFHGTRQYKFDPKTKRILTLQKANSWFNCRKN

[7] = biological target: Melanocortin receptor 3 (Homo sapiens, UniProt P41968); assay type: cell membranes, HEK293, Membrane; details: hek293; further: in other assays of this panel Not Active means under 50% inhibition at 10 µM
Sequence of Melanocortin receptor 3 (P41968 whole entry): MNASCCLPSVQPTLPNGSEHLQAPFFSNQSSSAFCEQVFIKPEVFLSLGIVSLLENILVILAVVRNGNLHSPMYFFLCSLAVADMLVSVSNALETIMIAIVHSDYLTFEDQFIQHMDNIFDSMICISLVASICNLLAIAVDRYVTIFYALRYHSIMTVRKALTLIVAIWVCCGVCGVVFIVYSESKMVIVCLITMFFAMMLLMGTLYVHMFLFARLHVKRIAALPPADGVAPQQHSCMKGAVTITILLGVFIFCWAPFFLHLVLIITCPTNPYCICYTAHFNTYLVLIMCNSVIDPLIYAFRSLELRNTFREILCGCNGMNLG

Sequence of Cytochrome P450 2C19 (P33261 whole entry): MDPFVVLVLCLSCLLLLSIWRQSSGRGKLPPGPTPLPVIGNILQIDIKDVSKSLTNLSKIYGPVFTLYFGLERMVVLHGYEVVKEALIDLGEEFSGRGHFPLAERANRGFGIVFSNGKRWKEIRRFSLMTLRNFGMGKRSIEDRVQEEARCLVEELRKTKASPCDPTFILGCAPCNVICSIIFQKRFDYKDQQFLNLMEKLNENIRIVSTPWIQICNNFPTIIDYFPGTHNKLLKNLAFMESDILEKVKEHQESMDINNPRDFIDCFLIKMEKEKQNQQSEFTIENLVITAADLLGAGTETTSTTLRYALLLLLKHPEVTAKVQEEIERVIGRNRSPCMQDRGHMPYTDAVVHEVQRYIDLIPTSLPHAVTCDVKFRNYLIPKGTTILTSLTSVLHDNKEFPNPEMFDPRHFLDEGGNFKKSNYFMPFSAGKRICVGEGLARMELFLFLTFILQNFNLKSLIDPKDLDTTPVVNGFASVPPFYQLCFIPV

CC(CN1c2ccccc2Sc2ccccc21)N(C)C (centres undefined) [PROMETHAZINE]
Not Active: IC50 [1] | Ki [1] | IC50 [2] | IC50 [3] | Ki [3] | IC50 [4] | IC50 [5] | IC50 [6] | IC50 [7]
